Here are results for 4 molecules from patent US20230010108.

The conditions of this series: ester bond, 2 steps.

Like-named read-outs stand apart in the source and are kept apart here.

In the case of `COCCOCCOCCOCCOCCOCCOCCOCCOCCOCC(=O)NCCCC[C@@H]1NC(=O)[C@@H](NC(=O)CCCN2C(=O)C=CC2=O)[C@@H](NC(=O)CCCN2C(=O)C=CC2=O)C(=O)N[C@@H](CCCCNC(=O)COCCOCCOCCOCCOCCOCCOCCOCCOCCOC)C(=O)NCCCC(=O)Nc2cc(C[C@@H](C[C@H](C)C(=O)OC(C)(C)C)NC(=O)OC(C)(C)C)ccc2OC(=O)CCCNC1=O`, under “from (7S,10R,11S,14S)-10,11-bis(4-(2,5-dioxo-2,5-dihydro-1H-pyrrol-1-yl)butanamido)-6,9,12,15-tetraoxo-7,14-bis(31-oxo-2,5,8,11,14,17,20,23,26,29-decaoxa-32-azahexatriacontan-36-yl)-5,8,13,16-tetraazaicosane-1,20-dioic acid + (2S,4R)-tert-butyl 5-(3-amino-4-hydroxyphenyl)-4-((tert-butoxycarbonyl)amino)-2-methylpentanoate?, 24-membered ring”, the ring closure, isolated yield is 52%.
Consider `CC(C)[C@@H]1NC(=O)[C@H](C)NC(=O)CCCNC(=O)[C@H](NC(=O)CN2C(=O)C=CC2=O)[C@H](NC(=O)CN2C(=O)C=CC2=O)C(=O)NCCCC(=O)Oc2ccc(C[C@@H](C[C@H](C)C(=O)OC(C)(C)C)NC(=O)OC(C)(C)C)cc2NC1=O`, for which the ring closure, isolated yield (from (2S,4R)-tert-butyl 5-(3-((S)-2-((S)-2-aminopropanamido)-3-methylbutanamido)-4-hydroxyphenyl)-4-((tert-butoxycarbonyl)amino)-2-methylpentanoate + 4,4′-(((2R,3S)-2,3-bis(2-(2,5-dioxo-2,5-dihydro-1H-pyrrol-1-yl)acetamido)succinyl)bis(azanediyl))-dibutanoic acid?, 24-membered ring) worked out at 62%.
Molecule `C[C@@H](C[C@H](Cc1ccc2c(c1)NC(=O)CCCNC(=O)[C@H](CCCCNC(=O)CCOCCOCCOCCC(=O)NCCOCCOCCC(=O)NCCOCCOCCC(=O)OC(C)(C)C)NC(=O)CCCNC(=O)[C@H](NC(=O)CCN1C(=O)C=CC1=O)[C@H](NC(=O)CCN1C(=O)C=CC1=O)C(=O)NCCCC(=O)O2)NC(=O)OC(C)(C)C)C(=O)OC(C)(C)C` gave a ring closure, isolated yield (from C[C@@H](C[C@H](Cc1ccc(O)c(NC(=O)CCCNC(=O)[C@H](CCCCNC(=O)CCOCCOCCOCCC(=O)NCCOCCOCCC(=O)NCCOCCOCCC(=O)OC(C)(C)C)NC(=O)CCCNC(=O)[C@@H](NC(=O)CCN2C(=O)C=CC2=O)[C@@H](NC(=O)CCN2C(=O)C=CC2=O)C(=O)NCCCC(=O)O)c1)NC(=O)OC(C)(C)C)C(=O)OC(C)(C)C, 26-membered ring) of 39%.
On to `COC(=O)[C@H](Cc1ccc2c(c1)NC(=O)CCCNC(=O)C(NC(=O)CCN1C(=O)C=CC1=O)C(NC(=O)CCN1C(=O)C=CC1=O)C(=O)NCCCC(=O)O2)NC(=O)OC(C)(C)C` (stereo partly shown), for which the ring closure, isolated yield (from 4,4′-((2,3-bis(2-(2,5-dioxo-2,5-dihydro-1H-pyrrol-1-yl)acetamido)-succinyl)bis(azanediyl))dibutanoic acid + (S)-methyl 3-(3-amino-4-hydroxyphenyl)-2-(tert-butoxycarbonylamino)propanoate?, 18-membered ring) amounted to 68%.
